How the values were obtained:
Phosphodiesterase 4 = Phosphodiesterase 4 (Homo sapiens, UniProt P27815+Q08499+Q07343+Q08493); conditions: Oryctolagus cuniculus; Kidney
Description: Susceptibility to be hydrolysed by a partially purified cAMP phosphodiesterase from rabbit kidney

[1] = Inhibition of cAMP phosphodiesterase preparation from rabbit lung at a substrate concentration of 0.14 uM

SMILES	Hydrolysis (Phosphodiesterase 4)	I50 [1] [µM]
CCSc1nc2c(N)ncnc2n1[C@@H]1O[C@@H]2COP(=O)(O)O[C@H]2[C@H]1O	< 0.05	33
O=P1(O)OC[C@H]2O[C@@H](n3cnc4c(Cl)ncnc43)[C@H](O)[C@@H]2O1	1.2	20
CC(C)Sc1nc2c(N)ncnc2n1[C@@H]1O[C@@H]2COP(=O)(O)O[C@H]2[C@H]1O	< 0.05	56
CC(C)CNc1ncnc2c1nc(Sc1ccc(Cl)cc1)n2[C@@H]1O[C@@H]2COP(=O)(O)O[C@H]2[C@H]1O	< 0.05	1.2
CSc1nc2c(N)ncnc2n1[C@@H]1O[C@@H]2COP(=O)(O)O[C@H]2[C@H]1O	< 0.05	69
Nc1ncnc2c1nc(Sc1ccccc1)n2[C@@H]1O[C@@H]2COP(=O)(O)O[C@H]2[C@H]1O	< 0.05	57
O=P1(O)OC[C@H]2O[C@@H](n3c(SCc4ccccc4)nc4c(NCc5ccccc5)ncnc43)[C@H](O)[C@@H]2O1	< 0.05	29
CCCCNc1ncnc2c1ncn2[C@@H]1O[C@@H]2COP(=O)(O)O[C@H]2[C@H]1O	0.21	33
CCNc1ncnc2c1ncn2[C@@H]1O[C@@H]2COP(=O)(O)O[C@H]2[C@H]1O	0.2	400
CCCCCCNc1ncnc2c1nc(SCc1ccccc1)n2[C@@H]1O[C@@H]2COP(=O)(O)O[C@H]2[C@H]1O	< 0.05	30
CCN(CC)c1ncnc2c1ncn2[C@@H]1O[C@@H]2COP(=O)(O)O[C@H]2[C@H]1O	0.09	67

Continued, values first:

Hydrolysis (Phosphodiesterase 4)	I50 [1] [µM]	SMILES
0.3	130	O=P1(O)OC[C@H]2O[C@@H](n3cnc4c(NCc5ccccc5)ncnc43)[C@H](O)[C@@H]2O1
< 0.05	33	Cc1ccccc1CSc1nc2c(N)ncnc2n1[C@@H]1O[C@@H]2COP(=O)(O)O[C@H]2[C@H]1O
< 0.05	10	O=P1(O)OC[C@H]2O[C@@H](n3c(Sc4ccc(Cl)cc4)nc4c(N5CCCCC5)ncnc43)[C@H](O)[C@@H]2O1
0.22	50	CNc1ncnc2c1ncn2[C@@H]1O[C@@H]2COP(=O)(O)O[C@H]2[C@H]1O
< 0.05	13	Nc1ncnc2c1nc(SC1CCCCC1)n2[C@@H]1O[C@@H]2COP(=O)(O)O[C@H]2[C@H]1O
< 0.05	27	Nc1ncnc2c1nc(SCc1ccc([N+](=O)[O-])cc1)n2[C@@H]1O[C@@H]2COP(=O)(O)O[C@H]2[C@H]1O
< 0.05	29	Cc1ccccc1Sc1nc2c(N)ncnc2n1[C@@H]1O[C@@H]2COP(=O)(O)O[C@H]2[C@H]1O
< 0.05	25	Nc1ncnc2c1nc(SCc1cccc([N+](=O)[O-])c1)n2[C@@H]1O[C@@H]2COP(=O)(O)O[C@H]2[C@H]1O
0.46	80	CSc1ncnc2c1ncn2[C@@H]1O[C@@H]2COP(=O)(O)O[C@H]2[C@H]1O
< 0.05	13	CCN(CC)c1ncnc2c1nc(N(CC)CC)n2[C@@H]1O[C@@H]2COP(=O)(O)O[C@H]2[C@H]1O
< 0.05	100	Nc1ncnc2c1nc(SCc1cccnc1)n2[C@@H]1O[C@@H]2COP(=O)(O)O[C@H]2[C@H]1O
0.19	17	CSc1nc2c(NCc3ccccc3)ncnc2n1[C@@H]1O[C@@H]2COP(=O)(O)O[C@H]2[C@H]1O
< 0.05	400	Nc1ncnc2c1nc(SCC(=O)[O-])n2[C@@H]1O[C@@H]2COP(=O)(O)O[C@H]2[C@H]1O.[Na+]
< 0.05	38	Nc1ncnc2c1nc(SCc1ccc(F)cc1)n2[C@@H]1O[C@@H]2COP(=O)(O)O[C@H]2[C@H]1O
< 0.05	2	CC(C)CCNc1ncnc2c1nc(SCc1ccccc1)n2[C@@H]1O[C@@H]2COP(=O)(O)O[C@H]2[C@H]1O

Reference: ChEMBL document CHEMBL1121590, “Synthesis and enzymatic and inotropic activity of some new 8-substituted and 6,8-disubstituted derivatives of adenosine cyclic 3',5'-monophosphate” (J Med Chem, 1980)
